From patent publication US11000511B2, “Chemical compounds as antibiotics” (priority 2017, dated 2021)

Tests used:
[1] = biological target: T1, purified LasB protein from P. aeruginosa (Pseudomonas aeruginosa, UniProt P14756); assay: Fluorometric assay to determine Ki (Assay 1); type: biochemical; conditions: Ki (μM) Assay 1, purified LasB, substrate Abz-Ala-Gly-Leu-Ala-p-Nitro-Benzyl-Amide 250 μM, Ki calculated from IC50; inhibitor 0.006 to 200 μM
T1 construct: purchased Merck or Charles River Laboratories
Summary of the method: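 Purified LasB (10 to 140 ng/ml) with 250 μM Abz-Ala-Gly-Leu-Ala-p-nitrobenzylamide in 50 mM Tris-HCl pH 7.4, 2.5 mM CaCl2, 0.01% Triton X100; hydrolysis read by fluorescence (Ex 340/Em 415 nm) over 30 min at 37° C. Inhibitor 2-fold series, 0.006–200 μM (Assay 1) or 0.0016–200 μM (Assay 2); IC50 converted to Ki via Ki=IC50/(1+[S]/Km), Km=214 μM.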

[2] = biological target: T2, LasB elastase activity in dialysed supernatant from P. aeruginosa strain PA01 (Pseudomonas aeruginosa, UniProt P14756); assay: Elastin Congo Red assay to determine % inhibition (Assay 1); type: biochemical; conditions: read-out: Elastin hydrolysis % inhibition @ 50/25 μM inhibitor concentration Assay 1
T2 construct: uses as source of enzyme dialysed supernatant from P. aeruginosa; endogenous in cells; host or cells: P. aeruginosa strain PA01 culture supernatant, filtered and dialysed
Summary of the method: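 Enzyme source: PA01 culture supernatant (19 h growth), filtered and dialysed into 50 mM Tris pH 7.4, 2.5 mM CaCl2. Mixed 1:1 with Elastin Congo Red (20 mg/mL) plus 0.01% Triton X-100 and compound (routinely 50 and 25 μM), 24 h at 37 °C shaking. Dye release at OD520 gives % inhibition versus DMSO.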

T1 sequence (P14756 198-498): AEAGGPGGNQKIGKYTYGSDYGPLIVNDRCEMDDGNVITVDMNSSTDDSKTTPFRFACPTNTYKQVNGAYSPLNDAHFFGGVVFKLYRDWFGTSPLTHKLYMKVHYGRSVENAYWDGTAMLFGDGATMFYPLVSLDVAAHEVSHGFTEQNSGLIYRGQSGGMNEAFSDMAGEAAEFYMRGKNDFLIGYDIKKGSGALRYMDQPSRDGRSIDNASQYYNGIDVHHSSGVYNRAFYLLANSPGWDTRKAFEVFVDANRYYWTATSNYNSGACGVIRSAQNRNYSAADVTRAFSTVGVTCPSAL
T2 sequence (P14756 198-498): as above

For NCCC1CN(c2ccc3nc(CNC(=O)C4(CC(=O)O)Cc5ccccc5C4)sc3c2)C1 [Example 70, 2-[2-[[6-[3-(2-aminoethyl)azetidin-1-yl]-1,3-benzothiazol-2-yl]methylcarbamoyl]indan-2-yl]acetic acid], the Ki [1] was < 0.3 µM and the inhibition at 50 µM [2] was > 60%.
For CN1CC2(C1)CN(c1ccc3nc(CNC(=O)C4(CC(=O)O)Cc5ccccc5C4)sc3c1)C2 [Example 71, 2-[2-[[6-(6-methyl-2,6-diazaspiro[3.3]heptan-2-yl)-1,3-benzothiazol-2-yl]methylcarbamoyl]indan-2-yl]acetic acid], the Ki [1] was < 0.3 µM and the inhibition at 50 µM [2] was > 60%.
For NCCNc1ccc2sc(CNC(=O)C3(CC(=O)O)Cc4ccccc4C3)nc2c1 [Example 72, 2-[2-[[5-(2-aminoethylamino)-1,3-benzothiazol-2-yl]methylcarbamoyl]indan-2-yl]acetic acid], the Ki [1] was 0.3 to 2 µM and the inhibition at 50 µM [2] was > 60%.
With NC1CN(c2ccc3sc(CNC(=O)C4(CC(=O)O)Cc5ccccc5C4)nc3c2)C1 [Example 73, 2-[2-[[5-(3-aminoazetidin-1-yl)-1,3-benzothiazol-2-yl]methylcarbamoyl]indan-2-yl]acetic acid] the Ki [1] was < 0.3 µM and the inhibition at 50 µM [2] was > 60%.
In the case of CN(C)C1CN(c2ccc3sc(CNC(=O)C4(CC(=O)O)Cc5ccccc5C4)nc3c2)C1 [Example 74, 2-[2-[[5-[3-(dimethylamino)azetidin-1-yl]-1,3-benzothiazol-2-yl]methylcarbamoyl]indan-2-yl]acetic acid], the Ki [1] is reported as < 0.3 µM and the inhibition at 50 µM [2] is reported as > 60%.
C[N+](C)(C)C1CN(c2ccc3sc(CNC(=O)C4(CC(=O)[O-])Cc5ccccc5C4)nc3c2)C1 [Example 75, 2-[2-[[5-[3-(trimethylammonio)azetidin-1-yl]-1,3-benzothiazol-2-yl]methylcarbamoyl]indan-2-yl]acetate] was tested, and the Ki [1] was 0.3 to 2 µM and the inhibition at 50 µM [2] was > 60%.
CN(C)CCNc1ccc2sc(CNC(=O)C3(CC(=O)O)Cc4ccccc4C3)nc2c1 [Example 76, 2-[2-[[5-[2-(dimethylamino)ethylamino]-1,3-benzothiazol-2-yl]methylcarbamoyl]indan-2-yl]acetic acid] was tested, and the Ki [1] was 0.3 to 2 µM and the inhibition at 50 µM [2] was > 60%.
In the case of NCCc1ccc2nc(CNC(=O)C3(CC(=O)O)Cc4ccccc4C3)sc2c1 [Example 80, 2-[2-[[6-(2-aminoethyl)-1,3-benzothiazol-2-yl]methylcarbamoyl]indan-2-yl]acetic acid], the Ki [1] is reported as 0.3 to 2 µM and the inhibition at 50 µM [2] is reported as > 60%.
For C[N+](C)(C)CC#Cc1ccc2nc(CNC(=O)C3(CC(=O)[O-])Cc4ccccc4C3)sc2c1 [Example 86, 2-[2-[[6-[3-(trimethylammonio)prop-1-ynyl]-1,3-benzothiazol-2-yl]methylcarbamoyl]indan-2-yl]acetate], the Ki [1] was < 0.3 µM and the inhibition at 50 µM [2] was > 60%.
With NC/C=C/c1ccc2sc(CNC(=O)C3(CC(=O)O)Cc4ccccc4C3)nc2c1 [Example 87, 2-[2-[[5-[(E)-3-aminoprop-1-enyl]-1,3-benzothiazol-2-yl]methylcarbamoyl]indan-2-yl]acetic acid] the Ki [1] was 0.3 to 2 µM and the inhibition at 50 µM [2] was > 60%.
With CN(C)CC#Cc1ccc2sc(CNC(=O)C3(CC(=O)O)Cc4ccccc4C3)nc2c1 [Example 88, 2-[2-[[5-[3-(dimethylamino)prop-1-ynyl]-1,3-benzothiazol-2-yl]methylcarbamoyl]indan-2-yl]acetic acid] the Ki [1] was < 0.3 µM and the inhibition at 50 µM [2] was > 60%.
CN(C)CCCc1ccc2sc(CNC(=O)C3(CC(=O)O)Cc4ccccc4C3)nc2c1 [Example 89, 2-[2-[[5-[3-(dimethylamino)propyl]-1,3-benzothiazol-2-yl]methylcarbamoyl]indan-2-yl]acetic acid] was tested, and the Ki [1] was 0.3 to 2 µM and the inhibition at 50 µM [2] was > 60%.
With C[N+](C)(C)CCCc1ccc2sc(CNC(=O)C3(CC(=O)[O-])Cc4ccccc4C3)nc2c1 [Example 90, 2-[2-[[5-[3-(trimethylammonio)propyl]-1,3-benzothiazol-2-yl]methylcarbamoyl]indan-2-yl]acetate] the Ki [1] was 0.3 to 2 µM and the inhibition at 50 µM [2] was > 60%.
